Measured values: patent US10138490B2, “Transformed plants tolerant to herbicides due to overexpression of prephenate dehydrogenase and p-hydroxyphenylpyruvate dioxygenase” (priority 2002, dated 2018)

Key:
Type in all cases: in vivo
[1] = test system: wild-type tobacco line of the Petit Havana type; assay: Tolerance to sulcotrione and to mesotrione, wild-type line
ARA9-PDH18 tobacco line = assay: Tolerance to sulcotrione and to mesotrione, ARA9-PDH18 line
Description: (§1) 13 ARA9-PDH lines and the PBD6-ARA9 line that was used as starting material for the transformation were sown on increasing concentrations of DKN:5, 10 and 32 ppm.
The same experiment was carried out with the HPPD inhibitors sulcotrione and mesotrione.

[2] = test system: ARA9-PDH tobacco lines (overexpressing PDH and HPPD); assay: Tolerance to HPPD inhibitors: sowing on increasing concentrations of DKN, doubly transformed lines
Excerpt: (§2) The tolerance of the transformed plants is studied by sowing on a soil treated with diketonitrile (DKN).
as §1

[3] = test system: PBD6-ARA9 tobacco line (overexpressing A. thaliana HPPD); assay: Tolerance to HPPD inhibitors: sowing on increasing concentrations of DKN, parental line
Excerpt: as §2, §1

Row | SMILES | concentration of HPPD inhibitor the line is sensitive to [1] | concentration of HPPD inhibitor the line is tolerant to (ARA9-PDH18 tobacco line) | response of lines sown on DKN ([2]; 5 ppm DKN, all 13 ARA9-PDH lines) | response of line sown on DKN ([2]; 10 ppm DKN, ARA9-PDH4 line) | response of lines sown on DKN ([2]; 10 ppm DKN, all ARA9-PDH lines except ARA9-PDH4) | response of lines sown on DKN ([2]; 32 ppm DKN, ARA9-PDH lines that were resistant to 10 ppm) | response of line sown on DKN ([3]; 5 ppm DKN) | response of line sown on DKN ([3]; 10 ppm DKN) | response of line sown on DKN ([3]; 32 ppm DKN)
1 | CS(=O)(=O)c1ccc(C(=O)C2C(=O)CCCC2=O)c(Cl)c1 [sulcotrione] | 0.375 µM | 6 µM | – | – | – | – | – | – | –
2 | CS(=O)(=O)c1cc(C(F)(F)F)ccc1C(=O)C(C#N)C(=O)C1CC1 (centres unmarked) [DKN] | – | – | resistant | inhibited | resist well | resistant and grow normally | resistant | completely inhibited | completely inhibited
3 | CS(=O)(=O)c1ccc(C(=O)C2C(=O)CCCC2=O)c([N+](=O)[O-])c1 [mesotrione] | 0.375 µM | 3 µM | – | – | – | – | – | – | –
